According to patent publication US20230077362A1 (CORTEVA AGRISCIENCE LLC, priority 2019, published 2023):
Where two headings read alike, the source gives them in different places.

Legend:
Assay type in all cases: in vivo
[1] = tested on: Cabbage Looper (Trichoplusia ni) ("CL"), second instar larvae; test: Bioassay on cabbage looper (CL), 128-well diet tray assay; conditions: Trichoplusia ni
How it was run: (§1)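 Covered trays were held at 25° C. under a 14:10 light-dark cycle for five to seven days. Percent mortality was then scored in each well, and activity across eight wells was averaged.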

[2] = tested on: Beet Armyworm (Spodoptera exigua) ("BAW"), second instar larvae; test: Bioassay on beet armyworm (BAW), 128-well diet tray assay; conditions: Spodoptera exigua
How it was run: as §1

[3] = tested on: Green Peach Aphid ("GPA") (Myzus persicae), wingless adult and nymph stages; test: Bioassay on green peach aphid (GPA), foliar spray on infested cabbage seedlings; conditions: Myzus persicae, foliar, 72 h
How it was run: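 Values are corrected % control, 100*(X−Y)/X, from live aphid counts per plant under a microscope, treated versus solvent-check plants. Four infested seedlings (20-50 GPA each) per treatment were sprayed to runoff and kept three days near 25° C at ambient RH.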

[4] = read-out: CL (Biological Results, rating)
[5] = read-out: BAW (Biological Results, rating)
[6] = read-out: GPA (Biological Results, rating)

COc1ccc(C(C)C)c(N2C(=O)CS/C2=N\C(=O)Nc2ccc(-c3ncn(-c4cccc(OC(F)(F)F)c4)n3)cc2F)c1 [Compound J154, (Z)-1-(2-Fluoro-4-(1-(3-(trifluoromethoxy)phenyl)-1H-1,2,4-triazol-3-yl)phenyl)-3-(3-(2-isopropyl-5-methoxyphenyl)-4-oxothiazolidin-2-ylidene)urea]
pest or weed control at 50 µg/cm2 [1, 4]: 50 to 100% | pest or weed control at 50 µg/cm2 [2, 5]: 50 to 100% | pest or weed control at 200 µg/mL [3, 6]: 0 to 80%

Cc1ccc(COCC(F)(F)F)c(N2C(=O)CS/C2=N\C(=O)Nc2ccc(-c3ncn(-c4ccc(C(F)F)cc4)n3)cc2F)c1 [Compound J686, (Z)-1-(4-(1-(4-(Difluoromethyl)phenyl)-1H-1,2,4-triazol-3-yl)-2-fluorophenyl)-3-(3-(5-methyl-2-((2,2,2-trifluoroethoxy)methyl)phenyl)-4-oxothiazolidin-2-ylidene)urea]
pest or weed control at 50 µg/cm2 ([1]; read-out: CL rating): 50 to 100% | pest or weed control at 50 µg/cm2 ([2]; read-out: BAW rating): 50 to 100% | pest or weed control at 200 µg/mL ([3]; read-out: GPA rating): 0 to 80%

CC(C)c1ccccc1N1C(=O)CS/C1=N\C(=O)Nc1ccc(-c2ncn(-c3ccc(OC(F)(F)F)cc3)n2)cc1F [Compound J86, (Z)-1-(2-Fluoro-4-(1-(4-(trifluoromethoxy)phenyl)-1H-1,2,4-triazol-3-yl)phenyl)-3-(3-(2-isopropylphenyl)-4-oxothiazolidin-2-ylidene)urea]
pest or weed control at 50 µg/cm2 [1, 4]: 50 to 100% | pest or weed control at 50 µg/cm2 [2, 5]: 50 to 100% | pest or weed control at 200 µg/mL [3, 6]: 0 to 80%

CCOC(C)c1ccc(C)cc1N1C(=O)CS/C1=N\C(=O)Nc1ccc(-c2ncn(-c3ccc(SC(F)(F)F)cc3)n2)cc1F (stereo not drawn) [Compound J230, (Z)-1-(3-(2-(1-Ethoxyethyl)-5-methylphenyl)-4-oxothiazolidin-2-ylidene)-3-(2-fluoro-4-(1-(4-((trifluoromethyl)thio)phenyl)-1H-1,2,4-triazol-3-yl)phenyl)urea]
pest or weed control at 50 µg/cm2 [1, 4]: 50 to 100% | pest or weed control at 50 µg/cm2 [2, 5]: 50 to 100% | pest or weed control at 200 µg/mL [3, 6]: 0 to 80%

COc1ccc(-n2cnc(-c3ccc(NC(=O)/N=C4\SCC(=O)N4c4cc(OC)ccc4C(C)C)c(F)c3)n2)cc1 [Compound J145, (Z)-1-(2-Fluoro-4-(1-(4-methoxyphenyl)-1H-1,2,4-triazol-3-yl)phenyl)-3-(3-(2-isopropyl-5-methoxyphenyl)-4-oxothiazolidin-2-ylidene)urea]
pest or weed control at 50 µg/cm2 [1, 4]: 50 to 100% | pest or weed control at 50 µg/cm2 [2, 5]: 50 to 100% | pest or weed control at 200 µg/mL [3, 6]: 0 to 80%

COCOc1cc(-c2ncn(-c3ccc(OC(F)(F)F)cc3)n2)ccc1NC(=O)/N=C1\SCC(=O)N1c1cc(N(C)C)ccc1C(C)C [Compound J172, (Z)-1-(3-(5-(Dimethylamino)-2-isopropylphenyl)-4-oxothiazolidin-2-ylidene)-3-(2-(methoxymethoxy)-4-(1-(4-(trifluoromethoxy)phenyl)-1H-1,2,4-triazol-3-yl)phenyl)urea]
pest or weed control at 50 µg/cm2 [1, 4]: 50 to 100% | pest or weed control at 50 µg/cm2 [2, 5]: 50 to 100% | pest or weed control at 200 µg/mL [3, 6]: 0 to 80%

Cc1ccc(COCC(F)(F)F)c(N2C(=O)CS/C2=N\C(=O)Nc2ccc(-c3ncn(-c4ccc(S(=O)(=O)C(F)(F)F)cc4)n3)cc2F)c1 [Compound J363, (Z)-1-(2-Fluoro-4-(1-(4-((trifluoromethyl)sulfonyl)phenyl)-1H-1,2,4-triazol-3-yl)phenyl)-3-(3-(5-methyl-2-((2,2,2-trifluoroethoxy)methyl)phenyl)-4-oxothiazolidin-2-ylidene)urea]
pest or weed control at 50 µg/cm2 ([1]; read-out: CL rating): 50 to 100% | pest or weed control at 50 µg/cm2 ([2]; read-out: BAW rating): 50 to 100% | pest or weed control at 200 µg/mL ([3]; read-out: GPA rating): 0 to 80%

COc1ccc(CC(F)(F)F)c(N2C(=O)CS/C2=N\C(=O)NCC(F)c2ccc(-c3ncn(-c4ccc(OC(F)(F)F)cc4)n3)cc2)c1 (stereo not drawn) [Compound H14]
pest or weed control at 50 µg/cm2 [1, 4]: 50 to 100% | pest or weed control at 50 µg/cm2 [2, 5]: 50 to 100% | pest or weed control at 200 µg/mL [3, 6]: 0 to 80%
